Tests used:
aged cells = experiment: Clonogenic assay (CFU-GM) of aged cells after miRNA mimic, siRNA or exosome treatment; type: cell-based, human; settings: overexpression of candidate miRNAs in aged isochronic cultures, vs negative control RNA
From the text: Aged TNCs (10×10^6 cells per sample) were nucleofected with microRNA mimics (Qiagen), miRNA inhibitors (Qiagen), negative control siRNA (Qiagen), negative control miRNA inhibitor (Qiagen) or downstream target candidate siRNAs (Origene) using the Amaxa P3 Primary Cell 4D-Nucleofector X Kit (Lonza) on a 4D Nucleofector device (Lonza), according to manufacturer's specific protocol. Briefly, for nucleofection of CD34+ cells used in clonogenic assays, cells were nucleofected with 60 nmol total miRNA mimics, miRNA inhibitors or siRNA using the “human CD34+ cell” program. For nucleofection of T cells used in T cell activation and cell-mediated cytotoxicity assays, cells were nucleofected with 240 nmol total miRNA mimics, miRNA inhibitors or siRNA using the “human unstimulated T cell, high functionality” program.

restored cells = experiment: Transwell co-culture of donor and receiver cell samples in presence or absence of manumycin; type: cell-based, human
From the text: Receiver cell samples (i.e., R1, R2, and R3) were individually paired with donor cell samples (i.e., D1, D2, and D3) and the pairs co-cultured in a transwell culture cell for four weeks. The morphology of the cells was studied at 2 weeks into the co-culture and at 4 weeks of co-culture. Gene expression arrays, protein arrays, and telomere length experiments compared freshly defrosted cells from the collection tubes (referred to as the baseline donor cell sample or baseline receiver cell sample) with cells at the 4-week study endpoint (referred to as restored cell samples).
Protein array analyses were carried out using conditioned media from the baseline donor cell sample or baseline receiver cell sample. The conditioned media was mixed with like cellular protein extracts and applied to the custom-designed arrays which consisted of antibody probes for 68 factors linked to cellular aging and senescence, collectively referred to as the senescence-associated secretory factors (SASF). Quantitative PCR gene array analyses were carried out by extracting RNA from the baseline samples or the co-cultured donor and receiver samples. The data presented represents the average metric determined for either the baseline donor cell sample, the baseline receiver cell sample, or the restored cell sample.
The nature of the soluble particles passing through the permeable membrane in the transwell co-culture experiments was investigated. Specifically, transwell co-culture experiments were carried out in the presence or absence of manumycin. Manumycin, -[(1S,5S,6R)-5-hydroxy-5-[(1E,3E,5E)-7-[(2-hydroxy-5-oxo-1-cyclopenten-1-yl)amino]-7-oxo-1,3,5-heptatrien-1-yl]-2-oxo-7-oxabicyclo[4.1.]hept-3-en-3-yl]-2E,4E,6R-trimethyl,2,4-decadienamide, is an antibiotic that acts a potent and selective farnesytransferase inhibitor. Mannumycin is also known to inhibit the release of exosomes. […] Further support for the role of exosome/microvesicles in mediating the disclosed cellular restoration process is shown in FIG. 36.

[1] = test system: exosomes of heterochronic cultures; experiment: Exosome production and RNA content in heterochronic culture with AGO2 inhibitor; type: cell-based, human
Experimental: Exosomes were isolated from cell culture media by the Total Exosome Isolation Kit (Life Technologies), using a modified version of the manufacturer's protocol. Briefly, 7-day isochronic and heterochronic cultures were established with Exosome-depleted FBS Media Supplement (System Biosciences), and culture media collected on the 4th and 7th days. Cells were pelleted and supernatant transferred to another tube for further clarification at 2000 g for 30 min to remove residual cells and debris. The remaining supernatant was transferred to a fresh tube and 0.5 volumes of Total Exosome Isolation reagent added for overnight incubation at 4° C. The following day samples were centrifuged at 10,000 g for 1 hr at 4° C. to pellet the exosomes for subsequent nanoparticle tracking analysis (NTA) or long-term storage at −80° C. […] For NTA, exosomes were re-suspended in 0.5 mL of PBS and measured using the following parameters: Temperature=25.6+/−0.5° C.; Viscosity=(Water) 0.99+/−0.01 cP; Measurement time=30 sec; Syringe pump speed=30. […]
Total RNA from exosomes and cells was isolated using the miRCURY RNA Isolation Kit (Exiqon) with small and large RNAs fractionated with the RNeasy MinElute Cleanup Kit (Qiagen), both according to manufacturer's recommended specifications. […] Mapped reads from individual samples were then compared to determine fold change for each miRNA. […]

Aged TNCs = experiment: Viability and cell count of aged TNCs cultured with CaMKP inhibitor (Trypan blue exclusion); type: cell-based, human
Experimental: Aged TNCs (20×10^6 cells per sample) were cultured with CaMKP inhibitor (FT-0640107 shown below) at the following concentrations 25 uM, 10 uM, 5 uM, 1 uM & 0 (vehicle). After 48 and 72 hours, cells were harvested, counted using Turk's solution and percent viability assessed using Trypan blue exclusion.
At 72 hours following treatment with the CaMPK inhibitor, FT-0640107, or vehicle, cells were harvested, counted and viability measured using Trypan blue exclusion.

Experimental for aged MPB: TNC vials were quickly thawed at 37° C. and cells added dropwise 1:10 to pre-warmed RPMI-1640 equilibration solution containing 5% HSA, 30 U/mL DNase I (Sigma), 5 mM MgCl2 and 5 mM CaCl2), and incubated at 37° C. for 3-4 hrs. After equilibration, cells were pelleted, washed in RPMI-1640 with 2% BSA and resuspended in complete media containing 10% FBS. Cells were seeded at densities of 10 or 30×10^6 cells/well in 12- or 6-well plates, respectively, containing 0.4 μm transwell inserts (BD Falcon). Heterochronic cultures were established with young cells in the upper chamber and aged cells in the lower chamber. Cells were incubated at 37° C. for 7 days, with 15% of culture media replenished with fresh media on the 4th day. On the 7th day, cells were harvested by centrifugation and evaluated.
Non-adherent cells from LTC-IC assays, as well as cells from isochronic and heterochronic cultures, were studied for progenitors in short-term methylcellulose culture using a CFU-GM readout. Briefly, cultures were initiated by seeding 150 cells/mm^2 in clonogenic media containing 3 U/mL of rhGM-CSF (R&D Systems). After 10 days, cultures were scored by a single blinded observer, and colonies enumerated for CFU-GM.

Q: For “miR-1303: miRNA (miR-1303), UUUAGAGACGGGGUCUUGCUCU (listed as RNA, chemistry not fully specified; listed as Homo sapiens)”, which aged colony formation (aged cells) is on record?
A: The aged colony formation was “significant effect”.

Q: With `CCCC[C@@H](C)/C=C(C)/C=C(\C)C(=O)NC1=C[C@@](O)(/C=C/C=C/C=C/C(=O)NC2=C(O)CCC2=O)[C@@H]2O[C@@H]2C1=O` [manumycin, -[(1S,5S,6R)-5-hydroxy-5-[(1E,3E,5E)-7-[(2-hydroxy-5-oxo-1-cyclopenten-1-yl)amino]-7-oxo-1,3,5-heptatrien-1-yl]-2-oxo-7-oxabicyclo[4.1.]hept-3-en-3-yl]-2E,4E,6R-trimethyl,2,4-decadienamide] as the compound, how does the “morphology of restored cells” value (restored cells; 5 μM, vs absence of manumycin) read?
A: The value was “less robust morphology”.

Q: And the “telomere length of restored cell sample” value (restored cells; R1-D1 pair, presence vs absence of manumycin)?
A: The value was “decreased”.

Q: And the “gene expression of restored cell samples” value (restored cells; co-cultured in the presence of manumycin)?
A: The value was “did not display a change in expression levels similar to those observed in the absence of manumycin”.

Q: What about the “protein expression (senescence-related factors) of restored cell samples” value (restored cells; vs co-culture in the absence of manumycin) of the same compound?
A: Its value is “elevated levels of all proteins investigated”.

Q: How did the “toxicity to the aged cultures” value (aged MPB) turn out when `O=C(/C=C/c1ccc(/C=C/C(=O)Nc2ccc(C3=NCCN3)cc2)cc1)Nc1ccc(C2=NCCN2)cc1` [GW4869] was run?
A: Its value is “extremely toxic”.

Q: And the restorative phenotype (aged MPB; blocking global exosome production (data not shown))?
A: The restorative phenotype was “abrogated”.

Q: How did the “exosome production and total RNA content” value [1] turn out when `CC(NS(=O)(=O)c1ccc2[nH]c(=O)c(=O)[nH]c2c1)C(=O)O` (centres unmarked) [BCI-137] was run?
A: Its value is “minimal effect”.

Q: And the “small and miRNA payload of exosomes” value [1]?
A: The value was “depleted”.

Q: What about the “aged MPB clonogenicity” value (aged MPB; inhibitor added to heterochronic cultures upon initial seeding) of the same compound?
A: The value was “significant decrease”.

Q: How did the cell number (Aged TNCs; 1 μM, 72 hours, vs vehicle control and high dose (25 μM), donor A04) turn out when `Nc1c(S(=O)(=O)O)cc(S(=O)(=O)[O-])c2cccc(O)c12.[Na+]` [FT-0640107] was run?
A: The cell number was “increase in cell number”.

Q: What about the viability at 1 µM (Aged TNCs; Homo sapiens, 1 μM, 72 hours, donor A04) of the same compound?
A: Its viability at 1 µM is 96.3%.

Q: What about the viability at 25 µM (Aged TNCs; Homo sapiens, high dose of 25 μM, 72 hours, donor A04) of the same compound?
A: The viability at 25 µM was 93%.

Q: And the “cell viability and cell number” value (Aged TNCs; donor A03, 48 or 72 hour timepoints)?
A: The value was “no significant difference”.

— patent US10717981B2, “Therapeutic compositions and methods of making and using the same” (Advanced ReGen Medical Technologies, LLC, priority 2018, dated 2020)
